In PubChem BioAssay (NCI):
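Exposure lasted 48 hours, with cells grown in 96-well plates and compounds tested at five concentrations. The concentration for full growth arrest is given as TGI.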

Columns and labels:
Test in all cases: inhibition of tumour cell growth, NCI panel, 48 h
NCI/ADR-RES ovarian = tested on: NCI/ADR-RES ovarian
NCI-H522 lung = tested on: NCI-H522 lung
HS 578T breast = tested on: HS 578T breast
K-562 leukemia = tested on: K-562 leukemia
MDA-N = tested on: MDA-N
CAKI-1 renal = tested on: CAKI-1 renal
UO-31 renal = tested on: UO-31 renal
NCI-H226 lung = tested on: NCI-H226 lung
SF-268 CNS = tested on: SF-268 CNS
TK-10 renal = tested on: TK-10 renal
RXF 393 renal = tested on: RXF 393 renal
SNB-19 CNS = tested on: SNB-19 CNS
BT-549 breast = tested on: BT-549 breast
CCRF-CEM leukemia = tested on: CCRF-CEM leukemia
SW-620 colon = tested on: SW-620 colon
SF-539 CNS = tested on: SF-539 CNS
MCF7 breast = tested on: MCF7 breast
SNB-75 CNS = tested on: SNB-75 CNS
A549 NSCLC = tested on: A549 NSCLC
HOP-92 NSCLC = tested on: HOP-92 NSCLC
MDA-MB-231 breast = tested on: MDA-MB-231 breast
HCT-15 colon = tested on: HCT-15 colon
UACC-62 melanoma = tested on: UACC-62 melanoma
HT29 colon = tested on: HT29 colon
OVCAR-5 ovarian = tested on: OVCAR-5 ovarian
T-47D breast = tested on: T-47D breast
M14 melanoma = tested on: M14 melanoma
UACC-257 melanoma = tested on: UACC-257 melanoma
HL-60(TB) leukemia = tested on: HL-60(TB) leukemia
SK-MEL-2 melanoma = tested on: SK-MEL-2 melanoma
SF-295 CNS = tested on: SF-295 CNS
HCC-2998 colon = tested on: HCC-2998 colon
SN12C renal = tested on: SN12C renal
RPMI-8226 leukemia = tested on: RPMI-8226 leukemia
MDA-MB-435 = tested on: MDA-MB-435
PC-3 prostate = tested on: PC-3 prostate
OVCAR-4 ovarian = tested on: OVCAR-4 ovarian
ACHN renal = tested on: ACHN renal
786-0 renal = tested on: 786-0 renal
U251 CNS = tested on: U251 CNS
IGROV1 ovarian = tested on: IGROV1 ovarian
COLO 205 colon = tested on: COLO 205 colon
HOP-62 NSCLC = tested on: HOP-62 NSCLC
HCT-116 colon = tested on: HCT-116 colon
NCI-H23 lung = tested on: NCI-H23 lung
SK-OV-3 ovarian = tested on: SK-OV-3 ovarian
KM12 colon = tested on: KM12 colon
LOX IMVI melanoma = tested on: LOX IMVI melanoma
NCI-H460 lung = tested on: NCI-H460 lung
EKVX NSCLC = tested on: EKVX NSCLC
SK-MEL-5 melanoma = tested on: SK-MEL-5 melanoma
OVCAR-3 ovarian = tested on: OVCAR-3 ovarian
MOLT-4 leukemia = tested on: MOLT-4 leukemia
DU-145 prostate = tested on: DU-145 prostate
OVCAR-8 ovarian = tested on: OVCAR-8 ovarian
SR leukemia = tested on: SR leukemia
SK-MEL-28 melanoma = tested on: SK-MEL-28 melanoma
A498 renal = tested on: A498 renal
MALME-3M melanoma = tested on: MALME-3M melanoma

SMILES: CCCCCCCCNC(=O)C1=C(C)NC(C)=C(C(=O)NCCCCCCCC)C1
- TGI (NCI/ADR-RES ovarian): > 100 µM
- TGI (NCI-H522 lung): > 100 µM
- TGI (HS 578T breast): > 100 µM
- TGI (K-562 leukemia): > 100 µM
- TGI (MDA-N): > 100 µM
- TGI (CAKI-1 renal): > 100 µM
- TGI (UO-31 renal): > 100 µM
- TGI (NCI-H226 lung): > 100 µM
- TGI (SF-268 CNS): > 100 µM
- TGI (TK-10 renal): > 100 µM
- TGI (RXF 393 renal): > 100 µM
- TGI (SNB-19 CNS): > 100 µM
- TGI (BT-549 breast): > 100 µM
- TGI (CCRF-CEM leukemia): > 100 µM
- TGI (SW-620 colon): > 100 µM
- TGI (SF-539 CNS): > 100 µM
- TGI (MCF7 breast): > 100 µM
- TGI (SNB-75 CNS): > 100 µM
- TGI (A549 NSCLC): > 100 µM
- TGI (HOP-92 NSCLC): > 100 µM
- TGI (MDA-MB-231 breast): > 100 µM
- TGI (HCT-15 colon): > 100 µM
- TGI (UACC-62 melanoma): > 100 µM
- TGI (HT29 colon): > 100 µM
- TGI (OVCAR-5 ovarian): > 100 µM
- TGI (T-47D breast): > 100 µM
- TGI (M14 melanoma): > 100 µM
- TGI (UACC-257 melanoma): > 100 µM
- TGI (HL-60(TB) leukemia): > 100 µM
- TGI (SK-MEL-2 melanoma): > 100 µM
- TGI (SF-295 CNS): > 100 µM
- TGI (HCC-2998 colon): > 100 µM
- TGI (SN12C renal): > 100 µM
- TGI (RPMI-8226 leukemia): > 100 µM
- TGI (MDA-MB-435): > 100 µM
- TGI (PC-3 prostate): > 100 µM
- TGI (OVCAR-4 ovarian): > 100 µM
- TGI (ACHN renal): > 100 µM
- TGI (786-0 renal): > 100 µM
- TGI (U251 CNS): > 100 µM
- TGI (IGROV1 ovarian): > 100 µM
- TGI (COLO 205 colon): > 100 µM
- TGI (HOP-62 NSCLC): > 100 µM
- TGI (HCT-116 colon): > 100 µM
- TGI (NCI-H23 lung): > 100 µM
- TGI (SK-OV-3 ovarian): > 100 µM
- TGI (KM12 colon): > 100 µM
- TGI (LOX IMVI melanoma): > 100 µM
- TGI (NCI-H460 lung): > 100 µM
- TGI (EKVX NSCLC): > 100 µM
- TGI (SK-MEL-5 melanoma): > 100 µM
- TGI (OVCAR-3 ovarian): > 100 µM
- TGI (MOLT-4 leukemia): > 100 µM
- TGI (DU-145 prostate): > 100 µM
- TGI (OVCAR-8 ovarian): > 100 µM

SMILES: Brc1sc(Br)c2c1[C@H](Br)C[C@@H]2Br
- TGI (SR leukemia): 97.7 µM
- TGI (SK-MEL-28 melanoma): > 100 µM
- TGI (NCI/ADR-RES ovarian): 63.9 µM
- TGI (NCI-H522 lung): 34.2 µM
- TGI (HS 578T breast): 77.1 µM
- TGI (K-562 leukemia): > 100 µM
- TGI (MDA-N): > 100 µM
- TGI (A498 renal): > 100 µM
- TGI (CAKI-1 renal): > 100 µM
- TGI (UO-31 renal): 45.8 µM
- TGI (NCI-H226 lung): 59.2 µM
- TGI (SF-268 CNS): 53.4 µM
- TGI (TK-10 renal): > 100 µM
- TGI (RXF 393 renal): 10.4 µM
- TGI (BT-549 breast): 79 µM
- TGI (CCRF-CEM leukemia): > 100 µM
- TGI (SW-620 colon): > 100 µM
- TGI (SF-539 CNS): 44.5 µM
- TGI (MCF7 breast): 98.5 µM
- TGI (SNB-75 CNS): 85.3 µM
- TGI (A549 NSCLC): > 100 µM
- TGI (HOP-92 NSCLC): 61.5 µM
- TGI (MDA-MB-231 breast): > 100 µM
- TGI (HCT-15 colon): > 100 µM
- TGI (UACC-62 melanoma): 88 µM
- TGI (HT29 colon): > 100 µM
- TGI (OVCAR-5 ovarian): > 100 µM
- TGI (T-47D breast): > 100 µM
- TGI (M14 melanoma): > 100 µM
- TGI (UACC-257 melanoma): > 100 µM
- TGI (MALME-3M melanoma): 63.2 µM
- TGI (HL-60(TB) leukemia): 75.2 µM
- TGI (SK-MEL-2 melanoma): 56 µM
- TGI (SN12C renal): > 100 µM
- TGI (MDA-MB-435): > 100 µM
- TGI (OVCAR-4 ovarian): 44.9 µM
- TGI (ACHN renal): 97.9 µM
- TGI (786-0 renal): > 100 µM
- TGI (U251 CNS): > 100 µM
- TGI (IGROV1 ovarian): > 100 µM
- TGI (COLO 205 colon): > 100 µM
- TGI (HOP-62 NSCLC): > 100 µM
- TGI (HCT-116 colon): > 100 µM
- TGI (NCI-H23 lung): 51.1 µM
- TGI (SK-OV-3 ovarian): > 100 µM
- TGI (KM12 colon): > 100 µM
- TGI (LOX IMVI melanoma): 43.8 µM
- TGI (NCI-H460 lung): > 100 µM
- TGI (EKVX NSCLC): > 100 µM
- TGI (SK-MEL-5 melanoma): > 100 µM
- TGI (OVCAR-3 ovarian): > 100 µM
- TGI (MOLT-4 leukemia): 95.5 µM
- TGI (DU-145 prostate): 61.2 µM
- TGI (OVCAR-8 ovarian): 57.2 µM

SMILES: COc1ccc(NS(=O)c2ccc(Cl)cc2)cc1 (stereo not given)
- TGI (SR leukemia): > 100 µM
- TGI (SK-MEL-28 melanoma): > 100 µM
- TGI (NCI/ADR-RES ovarian): > 100 µM
- TGI (NCI-H522 lung): > 100 µM
- TGI (HS 578T breast): > 100 µM
- TGI (K-562 leukemia): > 100 µM
- TGI (MDA-N): > 100 µM
- TGI (UO-31 renal): 42.4 µM
- TGI (NCI-H226 lung): 81.1 µM
- TGI (SF-268 CNS): 39.2 µM
- TGI (TK-10 renal): > 100 µM
- TGI (SNB-19 CNS): > 100 µM
- TGI (BT-549 breast): 63.9 µM
- TGI (CCRF-CEM leukemia): > 100 µM
- TGI (SW-620 colon): > 100 µM
- TGI (SF-539 CNS): 30 µM
- TGI (MCF7 breast): > 100 µM
- TGI (A549 NSCLC): > 100 µM
- TGI (MDA-MB-231 breast): > 100 µM
- TGI (HCT-15 colon): > 100 µM
- TGI (UACC-62 melanoma): 39.9 µM
- TGI (HT29 colon): > 100 µM
- TGI (T-47D breast): 41.2 µM
- TGI (M14 melanoma): > 100 µM
- TGI (UACC-257 melanoma): > 100 µM
- TGI (MALME-3M melanoma): 60 µM
- TGI (HL-60(TB) leukemia): > 100 µM
- TGI (SK-MEL-2 melanoma): 70 µM
- TGI (SF-295 CNS): > 100 µM
- TGI (HCC-2998 colon): > 100 µM
- TGI (SN12C renal): > 100 µM
- TGI (RPMI-8226 leukemia): > 100 µM
- TGI (MDA-MB-435): 76.1 µM
- TGI (OVCAR-4 ovarian): > 100 µM
- TGI (ACHN renal): > 100 µM
- TGI (786-0 renal): > 100 µM
- TGI (U251 CNS): 54.2 µM
- TGI (IGROV1 ovarian): > 100 µM
- TGI (COLO 205 colon): > 100 µM
- TGI (HOP-62 NSCLC): > 100 µM
- TGI (HCT-116 colon): > 100 µM
- TGI (NCI-H23 lung): > 100 µM
- TGI (KM12 colon): 23.8 µM
- TGI (LOX IMVI melanoma): > 100 µM
- TGI (NCI-H460 lung): > 100 µM
- TGI (EKVX NSCLC): > 100 µM
- TGI (SK-MEL-5 melanoma): > 100 µM
- TGI (OVCAR-3 ovarian): > 100 µM
- TGI (MOLT-4 leukemia): > 100 µM
- TGI (DU-145 prostate): > 100 µM
- TGI (OVCAR-8 ovarian): > 100 µM
